IC50 data for ten compounds are collected here from patent US10759783B2, “Biaryl inhibitors of Bruton'S tyrosine kinase” (BIOGEN MA INC., priority 2013, dated 2020).

Experiment [1] has as its target T1, BTK enzyme (Homo sapiens, UniProt Q06187).
T1 construct: purchased Upstate 14-552
The experiment can be described thus: In vitro BTK kinase assay: BTK-POLYGAT-LS assay. In kind it is biochemical. Conditions: ATP 10 μM, read-out: IC50 (10uMATP). A digest of the protocol:
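Human BTK activity was measured with final 10 μM ATP and 100 nM polyGAT substrate in pH 7.5 Tris buffer with 10 mM MgCl2, DTT, Triton X-100 and casein.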

In experiment [2] the target is BTK (phospho-BTK) in human whole blood (Homo sapiens, UniProt Q06187). The experiment can be described thus: In vitro PD assay in human whole blood (pBTK assay).
Chain of BTK (phospho-BTK) in human whole blood (Q06187 whole entry): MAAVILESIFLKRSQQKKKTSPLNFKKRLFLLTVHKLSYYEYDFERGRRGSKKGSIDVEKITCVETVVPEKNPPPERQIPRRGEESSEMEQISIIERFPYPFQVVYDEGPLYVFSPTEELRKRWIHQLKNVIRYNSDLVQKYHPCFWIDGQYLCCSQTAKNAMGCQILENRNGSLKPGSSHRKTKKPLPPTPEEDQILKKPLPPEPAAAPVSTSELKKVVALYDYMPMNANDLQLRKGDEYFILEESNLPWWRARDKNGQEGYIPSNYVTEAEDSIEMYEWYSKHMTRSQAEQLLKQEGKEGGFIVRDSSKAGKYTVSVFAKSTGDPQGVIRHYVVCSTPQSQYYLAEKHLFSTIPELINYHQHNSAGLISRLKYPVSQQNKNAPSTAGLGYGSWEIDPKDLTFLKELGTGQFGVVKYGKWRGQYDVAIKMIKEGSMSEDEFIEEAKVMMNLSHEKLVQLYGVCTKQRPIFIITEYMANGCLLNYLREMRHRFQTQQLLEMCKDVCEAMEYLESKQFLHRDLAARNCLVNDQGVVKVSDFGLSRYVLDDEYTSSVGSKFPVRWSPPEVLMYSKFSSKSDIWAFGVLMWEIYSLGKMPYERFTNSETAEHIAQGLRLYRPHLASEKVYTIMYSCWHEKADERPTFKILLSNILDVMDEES

T1 sequence (Q06187 whole entry): as above

In the case of `CC(C)(C)OC1CN(C(=O)NCc2ccc(-c3ccnc(Nc4cnn(C5CC5)c4)n3)cc2C(F)(F)F)C1` [Example I-294, 3-tert-butoxy-N-[[4-[2-[(1-cyclopropylpyrazol-4-yl)amino]pyrimidin-4-yl]-2-(trifluoromethyl)phenyl]methyl]azetidine-1-carboxamide], the IC50 in experiment [1] was less than 10 nM; in experiment [2], less than 500 nM.

For the compound `CC(C)OC1CN(C(=O)NC2CCN(C=O)Cc3cc(-c4ccnc(Nc5cnn(C)c5)n4)ccc32)C1` (centres unmarked) [Example I-329, N-[2-formyl-8-[2-[(1-methylpyrazol-4-yl)amino]pyrimidin-4-yl]-1,3,4,5-tetrahydro-2-benzazepin-5-yl]-3-isopropoxy-azetidine-1-carboxamide], the IC50 is less than 10 nM in experiment [1] and less than 500 nM in experiment [2].

Consider `CC(C)OC1CN(C(=O)NC2CCCCc3cc(-c4ccnc(Nc5cnn([C@H]6CCOC6)c5)n4)ccc32)C1` (stereo partly drawn) [Example I-338, 3-isopropoxy-N-[2-[2-[[1-[(3S)-tetrahydrofuran-3-yl]pyrazol-4-yl]amino]pyrimidin-4-yl]-6,7,8,9-tetrahydro-5H-benzo[7]annulen-5-yl]azetidine-1-carboxamide], for which the results for the IC50 in experiment [1] and in experiment [2] were less than 10 nM and less than 500 nM, respectively.

Consider `CC(C)CN1CCN(Cc2ccc(-c3ccnc(Nc4cnn(CCO)c4)n3)cc2C(F)(F)F)C(=O)C1` [Example I-310, 1-[[4-[2-[[1-(2-hydroxyethyl)pyrazol-4-yl]amino]pyrimidin-4-yl]-2-(trifluoromethyl)phenyl]methyl]-4-isobutyl-piperazin-2-one], for which the IC50 in experiment [1] is less than 10 nM; in experiment [2] it was less than 500 nM.

On to `Cc1cc(-c2ccnc(Nc3cnn(C)c3)n2)ccc1CNC(=O)N1CCC(C(F)(F)F)CC1` [Example I-19, N-(2-methyl-4-(2-((1-methyl-1H-pyrazol-4-yl)amino)pyrimidin-4-yl)benzyl)-4-(trifluoromethyl)piperidine-1-carboxamide], for which the IC50 in experiment [1] is less than 10 nM; in experiment [2], 500 to 1500 nM.

Turning to `Cc1cc(-c2cc(Nc3cc4n(n3)CC(C)N(C)C4)ncn2)ccc1CNC(=O)c1cnn(C(C)(C)C)c1` (centres unmarked) [Example I-280, 1-tert-butyl-N-[[4-[6-[(5,6-dimethyl-6,7-dihydro-4H-pyrazolo[1,5-a]pyrazin-2-yl)amino]pyrimidin-4-yl]-2-methyl-phenyl]methyl]pyrazole-4-carboxamide], the IC50 in experiment [1] was less than 10 nM; in experiment [2], less than 500 nM.

As to `CC(C)OC1CN(C(=O)NC2CCCCc3cc(-c4ccnc(Nc5cnn([C@@H]6CCOC6)c5)n4)ccc32)C1` (stereo partly drawn) [Example I-333, 3-isopropoxy-N-[2-[2-[[1-[(3R)-tetrahydrofuran-3-yl]pyrazol-4-yl]amino]pyrimidin-4-yl]-6,7,8,9-tetrahydro-5H-benzo[7]annulen-5-yl]azetidine-1-carboxamide], the IC50 in experiment [1] is less than 10 nM; in experiment [2] it was less than 500 nM.

Consider `CN1CCC(n2cc(Nc3nccc(-c4ccc(CNC(=O)N5CC(OC(C)(C)C)C5)c(C(F)(F)F)c4)n3)cn2)CC1` [Example I-200, 3-(tert-butoxy)-N-(4-(2-((1-(1-methylpiperidin-4-yl)-1H-pyrazol-4-yl)amino)pyrimidin-4-yl)-2-(trifluoromethyl)benzyl)azetidine-1-carboxamide], for which the IC50 in experiment [1] was less than 10 nM; in experiment [2], less than 500 nM.

As for `CC(C)n1cc(Nc2nccc(-c3ccc4c(c3)CCCCC4NC(=O)N3CC(OC(C)(C)C)C3)n2)cn1` (centres unmarked) [Example I-174, 3-(tert-butoxy)-N-(2-(2-((1-isopropyl-1H-pyrazol-4-yl)amino)pyrimidin-4-yl)-6,7,8,9-tetrahydro-5H-benzo[7]annulen-5-yl)azetidine-1-carboxamide], the figures for the IC50 in experiment [1] and in experiment [2] were less than 10 nM and less than 500 nM, respectively.

With `CN1CC(n2cc(Nc3nccc(-c4ccc(CNC(=O)c5cnn(C(C)(C)C)c5)c(Cl)c4)n3)cn2)C1` [Example I-356, 1-tert-butyl-N-[[2-chloro-4-[2-[[1-(1-methylazetidin-3-yl)pyrazol-4-yl]amino]pyrimidin-4-yl]phenyl]methyl]pyrazole-4-carboxamide], the IC50 was less than 10 nM in experiment [1] and less than 500 nM in experiment [2].
